Assay results published in US20200383983A1, “CGRP ANTAGONISTS FOR THE TREATMENT OF MEDICATION OVERUSE HEADACHE, POST-TRAUMATIC HEADACHE, POST-CONCUSSION SYNDROME AND VERTIGO” (Allergan Sales, LLC, priority 2019, published 2020).

What was measured:
[1] = stated generally, small molecules compared with monoclonal antibodies; cited from earlier work
[2] = Case scenario: patient with chronic migraine and medication overuse headache, weaning off Fiorinal; format: in vivo, human
Description: (§1) The following non-limiting examples provide those of ordinary skill in the art with possible case scenarios and specific methods to treat conditions within the scope of the present disclosure and are not intended to limit the scope of the disclosure.
[…] This responded well to Excedrin at that time. As they became older their headaches became more frequent and by the time they were in their late 20's they had headache on more than half the days of the month. Excedrin was no longer effective, and their primary care physician prescribed Fiorinal (aspirin, caffeine and barbiturate compound). […] […] Their primary care physician, on routine blood work noted: worsening renal and liver function tests. The patient reported depression and disability related to their headache disorder. They could not work or participate in family events. They were referred to a neurologist who specialized in headache disorders. They diagnosed them with episodic migraine without aura that had transformed to chronic migraine with associated medication overuse headache. They also diagnosed end organ damage with hepatic and renal damage secondary to analgesic overuse. They recommended a preventive treatment and that they taper off of Fiorinal. The patient started Topiramate as a migraine preventive and despite their best efforts they were unable to wean off of Fiorinal, due to breakthrough headache. They returned to the Neurologist and they prescribed Ubrogepant 50 mg daily for 10 days. […] They continued Topiramate treatment and used Ubrogepant 50 mg a day as needed for breakthrough headache. […] They were able to return to work and to participate in family events.

[3] = Case scenario: patient with migraine without aura and medication overuse headache (triptan overuse); format: in vivo, human; settings: 50 mg once a day, patient averaging 25 doses of oral triptan per month
Description: as §1
A person visits a headache clinic with almost daily migraine attacks. Their migraines have been ongoing since they were […]. […] Eventually, however, the migraine attacks became longer, lasting up to 3 or 4 days and forcing them to take 4 or 5 doses of triptan per attack. Currently, they are averaging 25 doses of oral triptan per month. They are diagnosed with migraine without aura and medication overuse headache. They are treated with ubrogepant at a dose of 50 mg, once a day.

[4] = Case scenario: patient with post-traumatic headache (PTH), subjective pain rating; format: in vivo, human; settings: for pain rating at worst, subjective rating scale of zero (no pain) to 10 (worst pain): before treatment 10; for pain rating at best, subjective rating scale of zero (no pain) to 10 (worst pain): before treatment eight; for pain rating on average, subjective rating scale of zero (no pain) to 10 (worst pain): before treatment nine
Description: as §1
A person complains of right-sided frontal headaches. The patient stated the headaches began 3 months ago after accidentally being hit in the face at the right frontal, maxillary, and zygomatic bones with a heavy instrument. They deny any loss of consciousness at the time of the incident and describes the pain as a “constant achy” to “stabbing” pain primarily over the right eye and right zygomatic bone. They complain of intermittent blurred vision when the pain becomes “stabbing.” They also complain of intermittent tinnitus. On a subjective rating scale of zero (no pain) to 10 (worst pain), the patient rates their pain as eight at best, nine on average, and 10 at worst. Results from a radiographic scan of the skull, CT scan of the brain, and MRI scan of the brain and cervical spine are normal. Results from slit lamp and neurologic testing are also normal. The patient is diagnosed to have PTH. The patient can be treated with ubrogepant at a dose of 100 mg, once a day. The treatment with ubrogepant can reduce the pain experienced by the patient and the patient can rate their pain as five at best, six on average, and nine at worst.
A person complains of right-sided frontal headaches. The patient stated the headaches began 3 months ago after accidentally being hit in the face at the right frontal, maxillary, and zygomatic bones with a heavy instrument. They deny any loss of consciousness at the time of the incident and describes the pain as a “constant achy” to “stabbing” pain primarily over the right eye and right zygomatic bone. They complain of intermittent blurred vision when the pain becomes “stabbing.” They also complain of intermittent tinnitus. On a subjective rating scale of zero (no pain) to 10 (worst pain), the patient rates their pain as eight at best, nine on average, and 10 at worst. Results from a radiographic scan of the skull, CT scan of the brain, and MRI scan of the brain and cervical spine are normal. Results from slit lamp and neurologic testing are also normal. The patient is diagnosed to have PTH. The patient can be treated with erenumab at a dose of 70 mg by subcutaneous administration. A month after the erenumab administration, the patient can rate their pain as five at best, six on average, and nine at worst.

[5] = 70 mg subcutaneous, a month after administration

C[C@@H]1[C@H](c2c(F)ccc(F)c2F)C[C@H](NC(=O)c2cnc3c(c2)C[C@@]2(C3)C(=O)Nc3ncccc32)C(=O)N1CC(F)(F)F [atogepant]
half-life [1]: measured in hours

N[C@@H]1c2cccnc2[C@H](OC(=O)N2CCC(n3c(=O)[nH]c4ncccc43)CC2)CC[C@H]1c1cccc(F)c1F [rimegepant]
half-life [1]: measured in hours

C[C@@H]1[C@H](c2ccccc2)C[C@H](NC(=O)c2cnc3c(c2)C[C@@]2(C3)C(=O)Nc3ncccc32)C(=O)N1CC(F)(F)F [ubrogepant]
need of as-needed use for breakthrough headache ([2]; 50 mg a day as needed, after 3 months): once or twice a month
effect on migraine attacks and recurrence ([2]; 50 mg a day as needed, continued Topiramate): effectively ended their migraine attacks and they had no recurrence requiring re-treatment
need of as-needed use for breakthrough headache ([2]; 50 mg a day as needed, first month after weaning off Fiorinal): twice a week
weaning off the overused medication (Fiorinal) ([2]; 50 mg daily for 10 days, with Topiramate as preventive): able to successfully wean off of Fiorinal
intensity and frequency of migraine [3]: can reduce the intensity and frequency of migraine
pain rating at worst, subjective rating scale of zero (no pain) to 10 (worst pain) ([4]; 100 mg once a day): nine
pain rating at best, subjective rating scale of zero (no pain) to 10 (worst pain) ([4]; 100 mg once a day): five
pain rating on average, subjective rating scale of zero (no pain) to 10 (worst pain) ([4]; 100 mg once a day): six
half-life [1]: measured in hours

B1: erenumab (antibody, chains of the INN, looked up, V domains shown)
VH: QVQLVESGGGVVQPGRSLRLSCAASGFTFSSFGMHWVRQAPGKGLEWVAVISFDGSIKYSVDSVKGRFTISRDNSKNTLFLQMNSLRAEDTAVYYCARDRLNYYDSSGYYHYKYYGMAVWGQGTTVTVSS
VL: QSVLTQPPSVSAAPGQKVTISCSGSSSNIGNNYVSWYQQLPGTAPKLLIYDNNKRPSGIPDRFSGSKSGTSTTLGITGLQTGDEADYYCGTWDSRLSAVVFGGGTKLTVL
pain rating at worst, subjective rating scale of zero (no pain) to 10 (worst pain) [4, 5]: nine
pain rating at best, subjective rating scale of zero (no pain) to 10 (worst pain) [4, 5]: five
pain rating on average, subjective rating scale of zero (no pain) to 10 (worst pain) [4, 5]: six
